Measurements taken from ChEMBL document CHEMBL1781964, “Exploring molecular shape analysis of styrylquinoline derivatives as HIV-1 integrase inhibitors” (Eur J Med Chem, 2008).

target: Human immunodeficiency virus type 1 integrase (Human immunodeficiency virus 1, UniProt Q7ZJM1); assay: Inhibition of HIV1 integrase 3' processing activity
Sequence (Q7ZJM1 whole entry): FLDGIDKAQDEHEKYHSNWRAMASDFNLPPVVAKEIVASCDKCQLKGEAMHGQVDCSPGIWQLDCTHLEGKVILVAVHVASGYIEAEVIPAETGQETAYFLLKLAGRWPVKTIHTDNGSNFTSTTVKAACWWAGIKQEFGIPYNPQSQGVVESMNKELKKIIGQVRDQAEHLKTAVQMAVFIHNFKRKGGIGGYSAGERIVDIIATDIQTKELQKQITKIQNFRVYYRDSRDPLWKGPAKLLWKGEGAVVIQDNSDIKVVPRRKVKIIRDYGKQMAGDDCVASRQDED

Point of comparison: `Nc1cccc2ccc(/C=C/c3ccc(O)c(O)c3)nc12`, IC50 100 µM. Against it:
- O=C(O)c1ccc2ccc(/C=C/c3ccc(O)c(O)c3O)nc2c1O — 330-fold lower, 0.302 µM
- Cc1cc(/C=C/c2ccc3ccc(C(=O)O)c(O)c3n2)ccc1O — 35-fold lower, 2.82 µM
- CC(=O)Oc1cccc2ccc(/C=C/c3ccccc3)nc12 — the same, 100 µM
- COC(=O)c1ccc2ccc(/C=C/c3ccc(O)c(O)c3)nc2c1O — the same, 100 µM
- Oc1ccc(/C=C/c2ccc3c(Cl)cc(Cl)c(O)c3n2)cc1O — the same, 100 µM
- Cc1ccc2ccc(C(=O)O)c(O)c2n1 — the same, 100 µM
- Cc1ccc2cccc(OC(=O)/C=C/c3ccc(O)c(O)c3)c2n1 — the same, 100 µM
- COc1ccc(/C=C/C(=O)Oc2cccc3ccc(C)nc23)cc1OC — the same, 100 µM
- CC(=O)Oc1ccc(/C=C/c2ccc3cccc(OC(C)=O)c3n2)cc1OC(C)=O — the same, 100 µM
- Oc1cccc2ccc(/C=C/c3ccccc3)nc12 — the same, 100 µM
- O=[N+]([O-])c1cccc2ccc(/C=C/c3ccc(O)c(O)c3)nc12 — the same, 100 µM
- Oc1cccc2ccc(/C=C/c3ccc4cccc(O)c4n3)nc12 — the same, 100 µM
- Oc1ccc(/C=C/c2ccc3ccccc3n2)cc1O — the same, 100 µM
- Cc1ccc2cccc(O)c2n1 [8-HYDROXY QUINALDINE] — the same, 100 µM
